Test results reported in patent publication US20240208992A1, “MACROCYCLES AS CFTR MODULATORS” (Idorsia Pharmaceuticals Ltd, priority 2021, published 2024).

Molecular target: human F508del-CFTR (Homo sapiens, UniProt P13569, DEL508-508)
Test: F508del-CFTR cell surface expression (corrector activity), DiscoveRx ß-galactosidase complementation chemiluminescence assay in recombinant U2OS cell line;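 also: U2OS cells co-expressing ProLink-tagged F508del-CFTR and a membrane-anchored enzyme acceptor, where more surface CFTR restores β-galactosidase activity measured by chemiluminescence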
Conditions: U2OS cells, 16h compound incubation; for EC50: EC50, F508del-CFTR cell surface expression, geomean of several measurements; for Emax: U2OS, in relation to the Emax of the corrector lumacaftor (=100%), arithmetic mean

human F508del-CFTR, sequence (P13569 with tags, fused parts or gaps DEL508-508): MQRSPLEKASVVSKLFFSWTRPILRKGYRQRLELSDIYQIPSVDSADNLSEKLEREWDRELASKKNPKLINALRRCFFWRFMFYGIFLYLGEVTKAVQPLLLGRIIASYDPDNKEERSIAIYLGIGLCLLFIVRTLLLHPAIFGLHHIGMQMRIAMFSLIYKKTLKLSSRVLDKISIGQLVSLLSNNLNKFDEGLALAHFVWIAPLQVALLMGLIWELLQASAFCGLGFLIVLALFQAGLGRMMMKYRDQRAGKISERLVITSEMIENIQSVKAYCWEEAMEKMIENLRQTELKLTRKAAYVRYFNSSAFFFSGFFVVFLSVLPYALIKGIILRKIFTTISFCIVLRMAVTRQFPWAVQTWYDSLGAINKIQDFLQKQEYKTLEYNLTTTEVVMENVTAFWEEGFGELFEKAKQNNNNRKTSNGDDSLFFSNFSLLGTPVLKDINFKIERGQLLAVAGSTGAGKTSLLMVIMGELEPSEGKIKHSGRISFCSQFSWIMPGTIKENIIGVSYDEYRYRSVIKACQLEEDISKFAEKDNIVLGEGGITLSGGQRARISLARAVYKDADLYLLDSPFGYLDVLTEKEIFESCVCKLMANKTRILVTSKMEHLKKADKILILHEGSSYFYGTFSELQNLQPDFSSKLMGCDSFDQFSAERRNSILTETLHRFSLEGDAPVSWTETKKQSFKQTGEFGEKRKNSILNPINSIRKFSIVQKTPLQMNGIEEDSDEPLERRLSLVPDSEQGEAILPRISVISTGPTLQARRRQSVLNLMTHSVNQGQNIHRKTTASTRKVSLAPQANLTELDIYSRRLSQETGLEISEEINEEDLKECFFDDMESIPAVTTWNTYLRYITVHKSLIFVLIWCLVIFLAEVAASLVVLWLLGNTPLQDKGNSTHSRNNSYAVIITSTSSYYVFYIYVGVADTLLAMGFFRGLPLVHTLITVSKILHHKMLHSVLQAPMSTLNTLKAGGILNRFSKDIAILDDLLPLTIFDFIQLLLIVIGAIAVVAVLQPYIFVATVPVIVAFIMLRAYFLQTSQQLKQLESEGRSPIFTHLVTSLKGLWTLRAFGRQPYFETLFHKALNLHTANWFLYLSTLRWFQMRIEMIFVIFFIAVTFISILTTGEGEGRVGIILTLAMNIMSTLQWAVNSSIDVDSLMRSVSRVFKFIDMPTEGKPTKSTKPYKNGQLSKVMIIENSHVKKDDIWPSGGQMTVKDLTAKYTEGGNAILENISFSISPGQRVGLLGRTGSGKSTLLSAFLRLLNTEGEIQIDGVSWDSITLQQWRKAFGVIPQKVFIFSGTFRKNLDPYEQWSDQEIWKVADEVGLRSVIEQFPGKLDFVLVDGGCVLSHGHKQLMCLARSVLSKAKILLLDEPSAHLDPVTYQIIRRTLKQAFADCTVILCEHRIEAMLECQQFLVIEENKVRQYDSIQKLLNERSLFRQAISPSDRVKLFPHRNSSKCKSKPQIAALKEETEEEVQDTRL

SMILES | EC50 [nM] | Emax [%]
CCOCC[C@@H]1C(=O)N[C@H](Cc2ccccc2)COc2cc(C)nc(OC)c2C(=O)N[C@H](C(=O)NCCc2cc(C3CC3)no2)CC(=O)N(C)[C@@H](CC(C)C)C(=O)N1C [Example 910, (3R,6R,9S,13S)-3-benzyl-N-(2-(3-cyclopropylisoxazol-5-yl)ethyl)-6-(2-ethoxyethyl)-9-isobutyl-16-methoxy-7,10,18-trimethyl-5,8,11,15-tetraoxo-2,3,4,5,6,7,8,9,10,11,12,13,14,15-tetradecahydropyrido[3,4-p][1]oxa[4,7,10,14]tetraazacycloheptadecine-13-carboxamide] | 477 | 423
CCOCC[C@@H]1C(=O)N[C@H](Cc2ccccc2)COc2ccc3cnc(C)cc3c2C(=O)N[C@H](C(=O)NCCc2cc(OC)no2)CC(=O)N(C)[C@@H](CC(C)C)C(=O)N1C [Example 913, (3S,7S,10R,13R)-13-benzyl-10-(2-ethoxyethyl)-7-isobutyl-N-(2-(3-methoxyisoxazol-5-yl)ethyl)-6,9,20-trimethyl-1,5,8,11-tetraoxo-1,2,3,4,5,6,7,8,9,10,11,12,13,14-tetradecahydro-[1]oxa[4,7,10,14]tetraazacycloheptadecino[16,17-f]isoquinoline-3-carboxamide] | 294 | 390
CCOCC[C@@H]1C(=O)N[C@H](Cc2ccccc2)COc2ccc3cnc(C)cc3c2C(=O)N[C@H](C(=O)NCCn2nnc(C3CC3)n2)CC(=O)N(C)[C@@H](CC(C)C)C(=O)N1C [Example 915, (3S,7S,10R,13R)-13-benzyl-N-(2-(5-cyclopropyl-2H-tetrazol-2-yl)ethyl)-10-(2-ethoxyethyl)-7-isobutyl-6,9,20-trimethyl-1,5,8,11-tetraoxo-1,2,3,4,5,6,7,8,9,10,11,12,13,14-tetradecahydro-[1]oxa[4,7,10,14]tetraazacycloheptadecino[16,17-f]isoquinoline-3-carboxamide] | 334 | 361
COc1noc(CCNC(=O)[C@@H]2CC(=O)N(C)[C@@H](CC(C)C)C(=O)N(C)[C@H](Cc3nc(-c4ccc(F)cn4)no3)C(=O)N[C@H](Cc3ccccc3)COc3ccc4ncc(F)cc4c3C(=O)N2)n1 [Example 916, (3S,7S,10R,13R)-13-benzyl-20-fluoro-10-((3-(5-fluoropyridin-2-yl)-1,2,4-oxadiazol-5-yl)methyl)-7-isobutyl-N-(2-(3-methoxy-1,2,4-oxadiazol-5-yl)ethyl)-6,9-dimethyl-1,5,8,11-tetraoxo-1,2,3,4,5,6,7,8,9,10,11,12,13,14-tetradecahydro-[1]oxa[4,7,10,14]tetraazacycloheptadecino[16,17-f]quinoline-3-carboxamide] | 196 | 470
COc1noc(CCNC(=O)[C@@H]2CC(=O)N(C)[C@@H](CC(C)C)C(=O)N(C)[C@H](Cc3nc(-c4ccc(F)cn4)no3)C(=O)N[C@H](Cc3ccccc3)COc3ccc4cnc(C)cc4c3C(=O)N2)n1 [Example 917, (3S,7S,10R,13R)-13-benzyl-10-((3-(5-fluoropyridin-2-yl)-1,2,4-oxadiazol-5-yl)methyl)-7-isobutyl-N-(2-(3-methoxy-1,2,4-oxadiazol-5-yl)ethyl)-6,9,20-trimethyl-1,5,8,11-tetraoxo-1,2,3,4,5,6,7,8,9,10,11,12,13,14-tetradecahydro-[1]oxa[4,7,10,14]tetraazacycloheptadecino[16,17-f]isoquinoline-3-carboxamide] | 487 | 398
COc1noc(CCNC(=O)[C@@H]2CC(=O)N(C)[C@@H](CC(C)C)C(=O)N(C)[C@H](Cc3nc(C(F)(F)F)no3)C(=O)N[C@H](Cc3ccccc3)COc3cc(C)nc(OC)c3C(=O)N2)n1 [Example 919, (3R,6R,9S,13S)-3-benzyl-9-isobutyl-16-methoxy-N-(2-(3-methoxy-1,2,4-oxadiazol-5-yl)ethyl)-7,10,18-trimethyl-5,8,11,15-tetraoxo-6-((3-(trifluoromethyl)-1,2,4-oxadiazol-5-yl)methyl)-2,3,4,5,6,7,8,9,10,11,12,13,14,15-tetradecahydropyrido[3,4-p][1]oxa[4,7,10,14]tetraazacycloheptadecine-13-carboxamide] | 104 | 443
Cc1cc2c3c(ccc2cn1)OC[C@@H](Cc1ccccc1)NC(=O)[C@@H](Cc1nc(C(F)F)no1)N(C)C(=O)[C@H](CC(C)C)N(C)C(=O)C[C@@H](C(=O)NCCn1nnc(C2CC2)n1)NC3=O [Example 921, (3S,7S,10R,13R)-13-benzyl-N-(2-(5-cyclopropyl-2H-tetrazol-2-yl)ethyl)-10-((3-(difluoromethyl)-1,2,4-oxadiazol-5-yl)methyl)-7-isobutyl-6,9,20-trimethyl-1,5,8,11-tetraoxo-1,2,3,4,5,6,7,8,9,10,11,12,13,14-tetradecahydro-[1]oxa[4,7,10,14]tetraazacycloheptadecino[16,17-f]isoquinoline-3-carboxamide] | 231 | 393

The next lines start with the values.

EC50 [nM] | Emax [%] | SMILES
531 | 341 | COc1noc(CCNC(=O)[C@@H]2CC(=O)N(C)[C@@H](CC(C)C)C(=O)N(C)C3(CC3)C(=O)N[C@H](Cc3ccccc3)COc3ccc4ncc(F)cc4c3C(=O)N2)n1 [Example 911, (3′S,7′S,13′R)-13′-benzyl-20′-fluoro-7′-isobutyl-N-(2-(3-methoxy-1,2,4-oxadiazol-5-yl)ethyl)-6′,9′-dimethyl-1′,5′,8′,11′-tetraoxo-2′,3′,4′,5′,6′,7′,8′,9′,11′,12′,13′,14′-dodecahydro-1′H-spiro[cyclopropane-1,10′-[1]oxa[4,7,10,14]tetraazacycloheptadecino[16,17-f]quinoline]-3′-carboxamide]
272 | 332 | COc1cc(CCNC(=O)[C@@H]2CC(=O)N(C)[C@@H](CC(C)C)C(=O)N3CCCC[C@@H]3C(=O)N[C@H](Cc3ccccc3)COc3ccc4ncccc4c3C(=O)N2)on1 [Example 912, (9S,13S,19aR,22R)-22-benzyl-13-isobutyl-N-(2-(3-methoxyisoxazol-5-yl)ethyl)-12-methyl-7,11,14,20-tetraoxo-7,8,9,10,11,12,13,14,17,18,19,19a,20,21,22,23-hexadecahydro-16H-pyrido[2′,1′:6,7][1]oxa[4,7,10,14]tetraazacycloheptadecino[16,17-f]quinoline-9-carboxamide]
368 | 358 | CCOCC[C@@H]1C(=O)N[C@H](Cc2ccccc2)COc2ccc3cnc(C)cc3c2C(=O)N[C@H](C(=O)NCCc2nc(OC)no2)CC(=O)N(C)[C@@H](CC(C)C)C(=O)N1C [Example 914, (3S,7S,10R,13R)-13-benzyl-10-(2-ethoxyethyl)-7-isobutyl-N-(2-(3-methoxy-1,2,4-oxadiazol-5-yl)ethyl)-6,9,20-trimethyl-1,5,8,11-tetraoxo-1,2,3,4,5,6,7,8,9,10,11,12,13,14-tetradecahydro-[1]oxa[4,7,10,14]tetraazacycloheptadecino[16,17-f]isoquinoline-3-carboxamide]
42 | 462 | COc1noc(CCNC(=O)[C@@H]2CC(=O)N(C)[C@@H](CC(C)C)C(=O)N(C)[C@H](Cc3nc(C(F)(F)F)no3)C(=O)N[C@H](Cc3ccccc3)COc3ccc4cnc(C)cc4c3C(=O)N2)n1 [Example 918, (3S,7S,10R,13R)-13-benzyl-7-isobutyl-N-(2-(3-methoxy-1,2,4-oxadiazol-5-yl)ethyl)-6,9,20-trimethyl-1,5,8,11-tetraoxo-10-((3-(trifluoromethyl)-1,2,4-oxadiazol-5-yl)methyl)-1,2,3,4,5,6,7,8,9,10,11,12,13,14-tetradecahydro-[1]oxa[4,7,10,14]tetraazacycloheptadecino[16,17-f]isoquinoline-3-carboxamide]
175 | 380 | COc1noc(CCNC(=O)[C@@H]2CC(=O)N(C)[C@@H](CC(C)C)C(=O)N3CCCC[C@@H]3C(=O)N[C@H](Cc3ccccc3)COc3cc(C)c4ncccc4c3C(=O)N2)n1 [Example 920, (9S,13S,19aR,22R)-22-benzyl-13-isobutyl-N-(2-(3-methoxy-1,2,4-oxadiazol-5-yl)ethyl)-2,12-dimethyl-7,11,14,20-tetraoxo-7,8,9,10,11,12,13,14,17,18,19,19a,20,21,22,23-hexadecahydro-16H-pyrido[2′,1′:6,7][1]oxa[4,7,10,14]tetraazacycloheptadecino[16,17-f]quinoline-9-carboxamide]
302 | 396 | COc1noc(CCNC(=O)[C@@H]2CC(=O)N(C)[C@@H](CC(C)C)C(=O)N(C)C3(CC(F)(F)C3)C(=O)N[C@H](Cc3ccccc3)COc3ccc4ncc(F)cc4c3C(=O)N2)n1 [Example 922, (3′S,7′S,13′R)-13′-benzyl-3,3,20′-trifluoro-7′-isobutyl-N-(2-(3-methoxy-1,2,4-oxadiazol-5-yl)ethyl)-6′,9′-dimethyl-1′,5′,8′,11′-tetraoxo-2′,3′,4′,5′,6′,7′,8′,9′,11′,12′,13′,14′-dodecahydro-1′H-spiro[cyclobutane-1,10′-[1]oxa[4,7,10,14]tetraazacycloheptadecino[16,17-f]quinoline]-3′-carboxamide]
26 | 500 | Cc1cc2c(c3cccnc13)C(=O)N[C@H](C(=O)NCCn1nnc(C3CC3)n1)CC(=O)N(C)[C@@H](CC(C)C)C(=O)N(C)[C@H](Cc1nc(C(F)(F)F)no1)C(=O)N[C@H](Cc1ccccc1)CO2 [Example 923, (3S,7S,10R,13R)-13-benzyl-N-(2-(5-cyclopropyl-2H-tetrazol-2-yl)ethyl)-7-isobutyl-6,9,17-trimethyl-1,5,8,11-tetraoxo-10-((3-(trifluoromethyl)-1,2,4-oxadiazol-5-yl)methyl)-1,2,3,4,5,6,7,8,9,10,11,12,13,14-tetradecahydro-[1]oxa[4,7,10,14]tetraazacycloheptadecino[16,17-f]quinoline-3-carboxamide]
